Test results as given in US6884415B2, “Antioxidation food product, antioxidation preparation and antioxidation method” (Otsuka Pharmaceutical Co., Ltd., priority 1993, dated 2005).

Biological target: T1, MPO (myeloperoxidase) (Homo sapiens, UniProt P05164)
T1 sequence (P05164 49-745): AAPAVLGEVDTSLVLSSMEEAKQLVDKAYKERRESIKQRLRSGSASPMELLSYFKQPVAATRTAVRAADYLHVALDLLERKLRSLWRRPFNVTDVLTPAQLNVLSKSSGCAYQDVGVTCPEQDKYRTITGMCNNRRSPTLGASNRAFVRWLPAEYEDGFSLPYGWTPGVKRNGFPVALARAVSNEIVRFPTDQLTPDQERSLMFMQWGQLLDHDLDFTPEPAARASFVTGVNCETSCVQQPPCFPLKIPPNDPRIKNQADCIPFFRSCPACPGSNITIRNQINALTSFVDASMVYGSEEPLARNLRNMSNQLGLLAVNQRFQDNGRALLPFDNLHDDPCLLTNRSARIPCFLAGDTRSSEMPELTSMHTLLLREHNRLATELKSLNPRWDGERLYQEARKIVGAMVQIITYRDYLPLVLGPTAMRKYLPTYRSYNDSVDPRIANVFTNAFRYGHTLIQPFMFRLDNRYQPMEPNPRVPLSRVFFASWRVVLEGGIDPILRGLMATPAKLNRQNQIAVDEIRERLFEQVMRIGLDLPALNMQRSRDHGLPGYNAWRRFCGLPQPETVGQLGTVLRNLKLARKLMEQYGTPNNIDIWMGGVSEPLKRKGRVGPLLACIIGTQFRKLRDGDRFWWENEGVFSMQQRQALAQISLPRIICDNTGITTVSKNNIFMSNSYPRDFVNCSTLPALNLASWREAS
Assay: MPO (myeloperoxidase) activity inhibition
Format: biochemical
Settings: MPO purified enzyme, pH 5.4, 25° C.
Experimental: To 2.9 ml of a 50 mM phosphate buffer (pH: 5.4) containing 0.1% hydrogen peroxide and 1.03 mM o-dianisidine, 50 μl of a test solution and 50 μl of a MPO purified enzyme (1.24 units/ml) were added and, after incubating in a cuvet at 25° C., measuring a change in absorbance (λ: 450 nm) was measured for 5 minutes. As a blank, 50 μl of a 50 mM phosphate buffer (pH: 5.4) was used.
As the test solution, a tea extract solution obtained by extracting a green tea with hot water and a solution obtained by measuring the concentration of Mn in the tea extract solution and adding MnCl2 in an APT broth so that the concentration of Mn in the medium may be the same as that of the tea extract solution were used. Then, […]
Therefore, it was examined whether the component contained in the tea other than Mn is connected with the MPO activity inhibition or not. That is, according to the same manner as that described above, the MPO inhibition activity was examined using a purified catechin as the component other than Mn.

catechin
concentration at which the MPO inhibition effect is exhibited: ≥ 1.5 µg/mL
